# According to patent US20120015981A1, “Active compound combinations” (Bayer CorpScience AG, priority 2009, published 2012):
# System: Microdochium nivale
# Experiment: Microdochium nivale test (lawn)/protective
# Type: in vivo
# Conditions: lawn (100% Agrostis stolonifera) in dishes; preventive application at 2000, 1000, 500 and 100 g/ha, 24 hours before inoculation with infected wheat grains; scoring after 5, 7, 14 and 21 days
# Protocol: Microdochium nivale Test (Lawn)/Protective
# Lawn seed (100% Agrostis stolonifera) was sown in dishes of the dimensions 38 cm×15 cm×9 cm. 7 days after sowing, the lawn was cut prior to preventive guanidinium hydroxide application at application rates of 2000, 1000, 500 and 100 g/ha. The water application rates were […] (converted). 24 hours after the preventive application of the active compound, the lawn was inoculated by placing of wheat grains infected with Microdochium nivale. In each case 3 wheat grains were placed into a single dish. Scoring of the subsequent fungal growth in the lawn dishes was carried out after 5, 7, 14 and 21 days. In the dishes which had been treated with guanidinium hydroxide, an inhibition of the growth of Microdochium nivale of up to 30% (Abbott) was observed.
structure (smiles),measurement,value
N=C(N)N.O [guanidinium hydroxide],inhibition of the growth of Microdochium nivale,up to 30 % (Abbott)
